Experimental data published in patent US20240350538A1, “Use of an arsenic compound for treating a short or long cytokine storm in various autoimmune/inflammatory diseases in humans or animals” (priority 2020, published 2024).

System: fresh human Peripheral Blood Mononuclear Cells (hPBMCs)
Test: Cytokine production (IFNα, IL-6, IL-1β) by hPBMCs in basal condition and after TLR-9 stimulation (ODN2216)
Type: cell-based
Settings: TLR-9-stimulated hPBMCs, 24 h; PD0325901 1 μM + ATO 2.5 μM

Question: How did the “production of IFNα after inhibition by ATO” value turn out when `O=C(NOC[C@H](O)CO)c1ccc(F)c(F)c1Nc1ccc(I)cc1F` [PD0325901] was run?
Answer: The value was “did not restore”.
